Test results published in US20170246468A1, “METHODS AND SYSTEMS FOR CONTROLLING OR TUNING THE ELECTRIC FIELD GENERATED IN SKIN OR TISSUE DURING COLD PLASMA SKIN TREATMENTS” (EP Technologies LLC, priority 2016, published 2017).

What was measured:
[1] = transport through open pores in the SC of a plasma treated area; conditions: applied more than 5 minutes after plasma treatment
[2] = plasmaporation-enhanced transdermal delivery across ex vivo porcine skin; type: in vitro ADME
Description: 27, 2013 and Sep. 29, 2013 incorporated herein. Others devices and techniques are described in U.S. Non-Provisional application Ser. No. 14/564,717 filed on Dec. 9, 2014, U.S. Non-Provisional application Ser. No. 14/610,467 filed on Jan. 30, 2015, and U.S. Non-Provisional application Ser. No. 14/967,512 filed on Dec. 14, 2015. All of these applications are incorporated by reference herein in their entirety.

transport through the SC when applied after 5 minutes [1]	time of transdermal delivery of topically applied molecules across skin with plasmaporation ([2]; topically applied) [min]	Substance	skin damage [2]
no longer passed through the SC		Dextran [10 kDa Dextran]	
	≤ 15	dextran	without creating skin damage
